Consider one substance from patent US20180296683A1, “COMPOSITIONS AND METHODS FOR DISASSEMBLING AMYLOID FIBRILS” (The Board of Trustees of the University of Illinois, priority 2017, published 2018).

Common to all, as to type: biochemical
The target in one assay is T1, Aβ40 (Homo sapiens, UniProt P05067).
T1 construct: Amyloid protein (Aβ40) was purchased from GL Biochem Ltd. (Shanghai, China); purchased GL Biochem Ltd. (Shanghai, China)
The assay is described as follows: Circular dichroism of Aβ40 secondary structure with fibril breakers. The conditions noted are these: iAβ5 910 μM, 60.7 equiv; Aβ40 15 μM; 3 days. Here is the method: We used circular dichroism studies to further confirm the secondary structures of disassembled Aβ40 aggregates in the presence of mP-iAβ5 conjugates, PHPMA, or iAβ5. Aβ40 solutions were incubated alone for 24 h to form fibrils. […] As Aβ40 continues to aggregate, the negative peak at 198 nm was converted to the positive peak around 194 nm and a negative peak around 217 nm.
Fibril breakers (mP-iAβ5 conjugates, PHPMA, or iAβ5) were added to preformed Aβ40 fibrils after 24 h and coincubated for 3 days before the structure characterization by circular dichroism.
Circular Dichroism (CD) spectroscopy. CD spectra of Aβ40 fibril solution incubated without or with fibril breakers (mP-iAβ5 conjugates, PHPMA, or iAβ5) were recorded in a JASCO J-815 Spectrometer (JASCO Co., Tokyo, Japan), using a quartz cuvette (1 mm path length). […] The spectra were taken as the average of three accumulations from 190 and 260 nm at a speed of 50 nm/min. All of the samples were incubated at 37° C. in 10 mM phosphate buffer solution (PBS) with a continuous agitation speed of 567 rpm. Spectra were calibrated by subtracting the buffer or sample solution baseline.
On the technique in general: Circular dichroism is the unequal absorption of left and right circularly polarised light.

The target of assay [1] is T2, preformed Aβ40 fibrils (Homo sapiens, UniProt P05067).
T2 construct: Amyloid protein (Aβ40) was purchased from GL Biochem Ltd. (Shanghai, China); purchased GL Biochem Ltd. (Shanghai, China)
The assay is described as follows: ThT fluorescence assay of Aβ40 fibril disassembly. Conditions: 15 μM Aβ40, PBS pH 7.4, 37° C., 3 days. Here is the method: ThT fluorescence assays were conducted in 96-well black plate (Thermo Scientific NUNC, catalog NO. 265301) at 37° C. with continuous shaking (567 rpm) in a BioTek Hybrid H1 plate reader. ThT fluorescence was recorded with 10 minutes reading intervals and 5 s shaking before first read (442 nm excitation, 482 nm emission). All samples were run in quadruple or more. At least three independent experiments were carried out for each ThT assay. Each well contained 10 mM PBS buffer solution (pH 7.4) and 20 μM ThT in a total volume of 200 μL. Aβ40 (15 μM, 1.0 equiv), iAβ5, control polymer 5, and mP-iAβ5 conjugates 4 of different molecular weights were added as needed. The concentrations of added samples were calculated based on Aβ40 (15 μM, 1.0 equiv).
Preparation of Buffered ThT Solution. The ThT solution in 20 mM PBS was freshly prepared before use. […] The concentration of the above solution was determined by UV-Vis at 412 nm (ε=36000 M^−1 cm^−1). Based on the determined concentration of the ThT solution, ultrapure water and 100 mM PBS were further added to dilute the ThT solution to 40 μM in 20 mM PBS, pH 7.4 […]
To each well of 96-well plate, the buffered ThT solution (40 μM, 100 μL) and ultrapure water (80 μL) were added and mixed. […] The samples containing mature fibrils of Aβ40 and modulators were coincubated for another 3 days in plate reader. The fluorescence was monitored by ThT assays.

Assay [2] addresses T2, preformed Aβ40 fibrils. The assay is described as follows: Control incubations with preformed Aβ40 fibrils assessed by AFM and DLS. The conditions noted are these: 3 days of incubation. As to the method: To evaluate the ability of mP-iAβ5 conjugates to disassemble amyloid fibrils, we conducted experiments in which mP-iAβ5 conjugates were incubated with preformed Aβ40 fibrils. Freshly prepared Aβ40 (15 μM) solutions were preincubated at 37° C. for 24 h, which is sufficiently long for mature fibrils to grow, as evidenced by AFM images and ThT fluorescence assays (FIG. 8). The preformed Aβ40 fibrils solution was then coincubated with 1.0 equiv of mP-iAβ5 conjugates of different molecular weights, and the morphology transformation of the fibril structures was monitored at 37° C. for 3 days by DLS, AFM imaging, and ThT fluorescence (we define an equiv of mP-iAβ5 as the molar ratio of polymer to Aβ40).
The molecular weight of mP-iAβ5 conjugate that completely disassembles preformed Aβ40 fibrils is 166 kDa. […] The disassembly of preformed fibrils by mP-iAβ5 conjugates was also quantitatively analyzed by DLS in solution phase. In agreement with AFM images, DLS results confirmed that all Aβ40 fibrils were transformed into dispersible sub-100 nm structures, and 0% of fibrils remained after 3 days of incubation (FIG. 2i). […] To investigate the effect of the PHPMA polymer backbone without iAβ5 moieties on Aβ40 disassembly, we incubated preformed Aβ40 fibrils in the presence of 1.0 equiv of 166 kDa PHPMA with and without 60.7 equiv of iAβ5 for 3 days.
Atomic Force Microscopy (AFM). Samples for AFM studies were taken directly from the ThT assays, and 10 μL of each sample solution was loaded on freshly cleaved mica surface (Electron Microscopy Sciences, catalog NO. 71856-01). Samples were incubated for 5 minutes and rinsed with 5 drops of molecular biology grade water. The mica surface was blow-dried under nitrogen. AFM images were obtained on a MultiMode V (Bruker, Santa Barbara, USA) microscope in tapping mode. Ultrasharp silicon cantilevers (SCANASYST-ATR, Bruker) were used. All of the images were collected at a scan rate of 1 Hz and scan lines of 512.
Dynamic Light Scattering (DLS). Samples for DLS studies were prepared at the same condition as in ThT assays without adding ThT dye molecules. The DLS studies were carried out using a particle sizer NICOMP 380 ZLS.

T2 sequence (P05067 672-711 limits assumed): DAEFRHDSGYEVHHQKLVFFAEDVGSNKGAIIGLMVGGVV
T1 sequence (P05067 672-711 limits assumed): as above

For the substance LPFFD [iAβ5], on Aβ40, the “secondary structure by CD after coincubation with preformed Aβ40 fibrils” value was “remain β-sheet structures”. The “ThT intensity during coincubation with Aβ40 fibrils” value on preformed Aβ40 fibrils [1] is listed as “not accompanied by the decreased ThT intensity”. Further, the “effect on preformed fibrils according to AFM and DLS” value at preformed Aβ40 fibrils [2] (8.1 equiv of iAβ5 per Aβ40), on preformed Aβ40 fibrils [2] (16.7 equiv of iAβ5 per Aβ40), on preformed Aβ40 fibrils [2] (32.5 equiv of iAβ5 per Aβ40), at preformed Aβ40 fibrils [2] (60.7 equiv of iAβ5 per Aβ40) and at preformed Aβ40 fibrils [2] (81.3 equiv of iAβ5 per Aβ40) was “remained unchanged” each time.
